{
  "source": "patent US12509447B2",
  "about": "“Small molecule compound” (Technoderma Medicines Pte Ltd, priority 2019, dated 2025)",
  "format_in_all_cases": "biochemical",
  "key": {"Tyk2": {"target": "Tyk2 (Homo sapiens, UniProt P29597)", "sequence (P29597 whole entry)": "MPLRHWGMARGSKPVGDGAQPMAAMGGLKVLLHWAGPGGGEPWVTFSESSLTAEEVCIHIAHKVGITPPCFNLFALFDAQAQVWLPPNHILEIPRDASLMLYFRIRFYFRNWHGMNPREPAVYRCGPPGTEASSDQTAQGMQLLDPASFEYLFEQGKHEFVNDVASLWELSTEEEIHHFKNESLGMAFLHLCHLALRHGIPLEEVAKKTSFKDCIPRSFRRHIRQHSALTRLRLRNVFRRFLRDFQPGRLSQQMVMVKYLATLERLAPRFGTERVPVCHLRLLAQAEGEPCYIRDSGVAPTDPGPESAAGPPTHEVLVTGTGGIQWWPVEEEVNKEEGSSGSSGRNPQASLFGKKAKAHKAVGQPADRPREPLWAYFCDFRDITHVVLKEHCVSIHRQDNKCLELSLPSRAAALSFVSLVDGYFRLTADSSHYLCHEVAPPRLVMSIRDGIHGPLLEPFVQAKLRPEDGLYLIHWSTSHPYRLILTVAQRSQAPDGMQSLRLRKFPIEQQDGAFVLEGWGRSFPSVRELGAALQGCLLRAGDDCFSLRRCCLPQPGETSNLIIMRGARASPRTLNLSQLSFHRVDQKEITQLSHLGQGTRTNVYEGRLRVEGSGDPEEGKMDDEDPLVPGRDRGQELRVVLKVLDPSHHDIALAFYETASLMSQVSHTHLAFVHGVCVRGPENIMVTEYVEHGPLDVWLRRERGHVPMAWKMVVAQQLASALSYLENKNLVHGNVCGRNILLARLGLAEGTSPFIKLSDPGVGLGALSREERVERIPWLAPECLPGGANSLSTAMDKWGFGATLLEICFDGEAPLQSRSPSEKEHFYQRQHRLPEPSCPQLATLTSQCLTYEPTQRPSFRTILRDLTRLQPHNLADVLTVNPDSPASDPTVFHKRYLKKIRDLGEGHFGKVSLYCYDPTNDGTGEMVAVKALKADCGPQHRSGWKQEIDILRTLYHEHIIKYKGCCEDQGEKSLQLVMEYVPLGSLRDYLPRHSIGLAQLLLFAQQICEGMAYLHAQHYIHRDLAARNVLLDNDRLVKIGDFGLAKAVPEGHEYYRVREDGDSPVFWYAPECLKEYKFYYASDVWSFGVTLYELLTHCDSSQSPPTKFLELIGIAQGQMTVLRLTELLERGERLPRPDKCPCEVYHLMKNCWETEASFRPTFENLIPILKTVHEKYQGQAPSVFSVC", "test": "Inhibition of JAK kinase activity, EZ Reader microfluidic phosphorylation of peptide substrate: Tyk2", "settings": "Tyk2 kinase 1 nM; highest final concentration 10 μM, 1:3 serial dilution, 8 points, duplicates", "summary_of_the_method": "(§1)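 Microfluidic mobility-shift assay reading fluorescent peptide substrate and product; kinases at 20 nM (JAK1) or 1 nM (JAK2, JAK3, Tyk2) in pH 7.4 HEPES with 10 mM MgCl2, run at room temperature to 20-30% conversion, then stopped with EDTA. Compounds tested from 10 μM top, 1:3 over 8 points in duplicate; IC50 fitted from % conversion.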"}, "JAK2": {"target": "JAK2 (Homo sapiens, UniProt O60674)", "sequence (O60674 whole entry)": "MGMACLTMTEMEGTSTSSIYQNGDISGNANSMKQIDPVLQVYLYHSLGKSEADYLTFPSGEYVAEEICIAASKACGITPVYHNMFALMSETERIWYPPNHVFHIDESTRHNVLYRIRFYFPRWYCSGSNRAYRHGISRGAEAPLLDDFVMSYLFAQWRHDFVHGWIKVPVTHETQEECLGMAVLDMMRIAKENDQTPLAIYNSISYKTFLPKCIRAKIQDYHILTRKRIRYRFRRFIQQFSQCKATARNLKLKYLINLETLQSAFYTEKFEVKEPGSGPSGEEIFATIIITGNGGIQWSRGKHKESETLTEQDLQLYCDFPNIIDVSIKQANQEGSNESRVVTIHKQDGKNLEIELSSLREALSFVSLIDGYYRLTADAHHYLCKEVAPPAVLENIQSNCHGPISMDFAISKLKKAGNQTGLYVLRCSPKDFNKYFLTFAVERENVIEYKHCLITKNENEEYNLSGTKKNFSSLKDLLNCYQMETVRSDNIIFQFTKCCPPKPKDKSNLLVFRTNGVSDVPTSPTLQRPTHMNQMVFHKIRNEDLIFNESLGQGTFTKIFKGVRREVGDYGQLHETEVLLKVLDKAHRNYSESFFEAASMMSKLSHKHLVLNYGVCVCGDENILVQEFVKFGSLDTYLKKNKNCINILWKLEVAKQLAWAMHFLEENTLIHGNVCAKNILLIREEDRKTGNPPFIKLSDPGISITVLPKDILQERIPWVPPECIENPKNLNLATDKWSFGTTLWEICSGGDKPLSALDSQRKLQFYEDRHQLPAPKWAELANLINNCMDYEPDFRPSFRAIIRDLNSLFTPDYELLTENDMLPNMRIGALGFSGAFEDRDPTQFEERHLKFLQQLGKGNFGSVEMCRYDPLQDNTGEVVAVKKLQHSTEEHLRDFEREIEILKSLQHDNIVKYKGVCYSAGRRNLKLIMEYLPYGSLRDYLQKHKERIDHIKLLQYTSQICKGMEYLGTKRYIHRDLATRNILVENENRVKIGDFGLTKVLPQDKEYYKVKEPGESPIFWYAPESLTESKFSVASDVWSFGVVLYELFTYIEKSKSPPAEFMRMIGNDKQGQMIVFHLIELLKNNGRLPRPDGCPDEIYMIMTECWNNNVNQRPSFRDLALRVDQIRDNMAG", "test": "Inhibition of JAK kinase activity, EZ Reader microfluidic phosphorylation of peptide substrate: JAK2", "settings": "JAK2 kinase 1 nM; highest final concentration 10 μM, 1:3 serial dilution, 8 points, duplicates", "summary_of_the_method": "as §1"}, "JAK3": {"target": "T1, JAK3 (Homo sapiens, UniProt P52333)", "T1 sequence (P52333 1-1124)": "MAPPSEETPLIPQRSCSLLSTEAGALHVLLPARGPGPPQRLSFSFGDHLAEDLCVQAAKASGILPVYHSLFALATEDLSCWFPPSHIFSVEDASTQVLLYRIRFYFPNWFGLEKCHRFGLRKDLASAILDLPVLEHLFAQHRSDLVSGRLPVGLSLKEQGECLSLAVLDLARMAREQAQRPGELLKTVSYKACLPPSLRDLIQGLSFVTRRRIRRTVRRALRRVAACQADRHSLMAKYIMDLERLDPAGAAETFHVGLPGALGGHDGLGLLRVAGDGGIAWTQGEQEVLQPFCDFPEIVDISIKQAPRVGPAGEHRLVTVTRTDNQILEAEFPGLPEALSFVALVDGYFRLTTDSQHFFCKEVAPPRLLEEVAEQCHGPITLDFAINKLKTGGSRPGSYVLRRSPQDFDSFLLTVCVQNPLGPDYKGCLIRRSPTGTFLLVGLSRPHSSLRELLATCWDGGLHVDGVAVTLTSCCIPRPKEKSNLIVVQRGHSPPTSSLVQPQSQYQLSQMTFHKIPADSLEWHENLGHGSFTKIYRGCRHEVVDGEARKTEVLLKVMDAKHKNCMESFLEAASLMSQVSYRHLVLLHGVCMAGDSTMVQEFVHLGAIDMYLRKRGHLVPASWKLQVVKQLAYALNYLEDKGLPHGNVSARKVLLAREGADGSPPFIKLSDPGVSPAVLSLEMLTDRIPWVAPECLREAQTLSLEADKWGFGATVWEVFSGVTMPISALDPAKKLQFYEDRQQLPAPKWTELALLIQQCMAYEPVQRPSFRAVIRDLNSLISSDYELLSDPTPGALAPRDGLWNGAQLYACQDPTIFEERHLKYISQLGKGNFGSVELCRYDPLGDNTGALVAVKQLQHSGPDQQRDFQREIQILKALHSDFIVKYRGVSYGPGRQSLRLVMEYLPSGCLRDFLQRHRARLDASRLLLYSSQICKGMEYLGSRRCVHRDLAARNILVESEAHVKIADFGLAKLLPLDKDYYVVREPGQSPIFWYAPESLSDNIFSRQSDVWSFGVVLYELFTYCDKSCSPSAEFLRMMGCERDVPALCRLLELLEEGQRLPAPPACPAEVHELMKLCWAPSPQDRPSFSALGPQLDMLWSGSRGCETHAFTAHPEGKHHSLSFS", "test": "Inhibition of JAK kinase activity, EZ Reader microfluidic phosphorylation of peptide substrate: JAK3", "settings": "JAK3 kinase 1 nM; highest final concentration 10 μM, 1:3 serial dilution, 8 points, duplicates", "summary_of_the_method": "as §1"}, "JAK1": {"target": "JAK1 (Homo sapiens, UniProt P23458)", "sequence (P23458 whole entry)": "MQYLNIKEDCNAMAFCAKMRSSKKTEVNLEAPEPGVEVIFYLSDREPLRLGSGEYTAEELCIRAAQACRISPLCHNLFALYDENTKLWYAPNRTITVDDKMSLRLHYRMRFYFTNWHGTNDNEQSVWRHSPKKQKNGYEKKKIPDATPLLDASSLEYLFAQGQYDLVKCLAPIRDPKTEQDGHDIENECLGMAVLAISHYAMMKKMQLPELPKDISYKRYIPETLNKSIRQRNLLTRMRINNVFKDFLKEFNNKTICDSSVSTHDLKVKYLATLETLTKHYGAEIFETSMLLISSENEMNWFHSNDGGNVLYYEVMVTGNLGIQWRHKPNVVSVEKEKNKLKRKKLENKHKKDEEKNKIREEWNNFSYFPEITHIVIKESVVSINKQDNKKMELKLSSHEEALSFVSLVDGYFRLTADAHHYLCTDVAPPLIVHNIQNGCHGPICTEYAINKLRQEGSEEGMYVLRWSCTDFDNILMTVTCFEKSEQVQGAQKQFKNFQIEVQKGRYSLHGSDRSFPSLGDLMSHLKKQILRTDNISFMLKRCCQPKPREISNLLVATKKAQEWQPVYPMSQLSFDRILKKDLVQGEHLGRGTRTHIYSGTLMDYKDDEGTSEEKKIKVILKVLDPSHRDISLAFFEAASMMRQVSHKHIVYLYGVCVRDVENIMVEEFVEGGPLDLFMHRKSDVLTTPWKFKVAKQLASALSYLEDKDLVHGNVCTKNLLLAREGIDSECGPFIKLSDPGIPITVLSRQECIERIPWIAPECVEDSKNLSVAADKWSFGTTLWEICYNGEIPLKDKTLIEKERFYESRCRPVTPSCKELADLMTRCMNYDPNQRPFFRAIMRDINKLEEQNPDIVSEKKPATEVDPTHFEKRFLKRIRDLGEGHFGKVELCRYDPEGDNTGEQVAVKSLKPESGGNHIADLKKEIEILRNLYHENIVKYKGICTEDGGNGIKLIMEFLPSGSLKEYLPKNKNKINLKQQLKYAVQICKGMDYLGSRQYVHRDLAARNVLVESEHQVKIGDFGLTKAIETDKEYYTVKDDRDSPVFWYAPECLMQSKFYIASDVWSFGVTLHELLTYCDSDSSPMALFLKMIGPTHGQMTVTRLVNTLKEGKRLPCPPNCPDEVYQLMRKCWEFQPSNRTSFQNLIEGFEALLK", "test": "Inhibition of JAK kinase activity, EZ Reader microfluidic phosphorylation of peptide substrate: JAK1", "settings": "JAK1 kinase 20 nM; highest final concentration 10 μM, 1:3 serial dilution, 8 points, duplicates", "summary_of_the_method": "as §1"}},
  "data": [
    {"smiles": "Cn1cc(Nc2nccc(-c3ccn(C4(CC#N)CN(C(=O)CC#N)C4)c3)n2)cn1", "note": "[TDM-180775, 3-(3-(cyanomethyl)-3-(3-(2-((1-methyl-1H-pyrazol-4-yl)amino)pyrimidin-4-yl)-1H-pyrrol-1-yl)azetidinpiperazin-1-yl)-3-oxypropionitrile]", "values": [
      {"measurement": "IC50", "setting": "Tyk2", "value": "0.1 to 1", "unit": "µM"},
      {"measurement": "IC50", "setting": "JAK2", "value": "0.1 to 1", "unit": "µM"},
      {"measurement": "IC50", "setting": "JAK3", "value": "≥ 10", "unit": "µM"},
      {"measurement": "IC50", "setting": "JAK1", "value": "0.1 to 1", "unit": "µM"}
    ]},
    {"smiles": "Cn1cc(Nc2nccc(-c3cnn(C4(CC#N)CN(C(=O)CC(F)(F)F)C4)c3)n2)cn1", "note": "[TDM-180752, 2-(3-(4-(2-((1-methyl-1H-pyrazol-4-yl)amino)pyrimidin-4-yl)-1H-pyrazol-1-yl)-1-(3,3,3-trifluoropropionyl)azetidin-3-yl)acetonitrile]", "values": [
      {"measurement": "IC50", "setting": "Tyk2", "value": "0.1 to 1", "unit": "µM"},
      {"measurement": "IC50", "setting": "JAK2", "value": "0.1 to 1", "unit": "µM"},
      {"measurement": "IC50", "setting": "JAK3", "value": "1 to 10", "unit": "µM"},
      {"measurement": "IC50", "setting": "JAK1", "value": "0.1 to 1", "unit": "µM"}
    ]},
    {"smiles": "Cn1cc(Nc2nccc(-c3cnn(C4CCN(C(=O)CC#N)C4)c3)n2)cn1", "note": "(centres unmarked) [TDM-180653, 3-(3-(4-(2-((1-methyl-1H-pyrazol-4-yl)amino)pyrimidin-4-yl)-1H-pyrazol-1-yl)pyrrolidin-1-yl)-3-oxopropanenitrile]", "values": [
      {"measurement": "IC50", "setting": "Tyk2", "value": "1 to 10", "unit": "µM"},
      {"measurement": "IC50", "setting": "JAK2", "value": "1 to 10", "unit": "µM"},
      {"measurement": "IC50", "setting": "JAK3", "value": "≥ 10", "unit": "µM"},
      {"measurement": "IC50", "setting": "JAK1", "value": "≥ 10", "unit": "µM"}
    ]},
    {"smiles": "Cn1cc(Nc2nccc(-c3ccn(C4(CC#N)CN(S(=O)(=O)C5CCOCC5)C4)c3)n2)cn1", "note": "[TDM-180855, 2-(3-(3-(2-((1-methyl-1H-pyrazol-4-yl)amino)pyrimidin-4-yl)-1H-pyrrol-1-yl)-1-((tetrahydro-2H-pyran-4-yl)sulfonyl)azetidin-3-yl)acetonitrile]", "values": [
      {"measurement": "IC50", "setting": "Tyk2", "value": "0.1 to 1", "unit": "µM"},
      {"measurement": "IC50", "setting": "JAK2", "value": "0.1 to 1", "unit": "µM"},
      {"measurement": "IC50", "setting": "JAK3", "value": "1 to 10", "unit": "µM"},
      {"measurement": "IC50", "setting": "JAK1", "value": "0.1 to 1", "unit": "µM"}
    ]},
    {"smiles": "CCCCS(=O)(=O)N1CC(CC#N)(n2cc(-c3ccnc(Nc4cnn(C)c4)n3)cn2)C1", "note": "[TDM-180807, 2-(1-(butylsulfonyl)-3-(4-(2-((1-methyl-1H-pyrazol-4-yl)amino)pyrimidin-4-yl)-1H-pyrazol-1-yl)azetidin-3-yl)acetonitrile]", "values": [
      {"measurement": "IC50", "setting": "Tyk2", "value": "0.1 to 1", "unit": "µM"},
      {"measurement": "IC50", "setting": "JAK2", "value": "0.1 to 1", "unit": "µM"},
      {"measurement": "IC50", "setting": "JAK3", "value": "≥ 10", "unit": "µM"},
      {"measurement": "IC50", "setting": "JAK1", "value": "1 to 10", "unit": "µM"}
    ]},
    {"smiles": "Cn1cc(Nc2nccc(-c3ccn(C4(CC#N)CN(C(=O)C5CC5)C4)c3)n2)cn1", "note": "[TDM-180772, 2-(1-(cyclopropanecarbonyl)-3-(3-(2-((1-methyl-1H-pyrazol-4-yl)amino)pyrimidin-4-yl)-1H-pyrrol-1-yl)azetidinpyridin-3-yl)acetonitrile]", "values": [
      {"measurement": "IC50", "setting": "Tyk2", "value": "0.1 to 1", "unit": "µM"},
      {"measurement": "IC50", "setting": "JAK2", "value": "0.1 to 1", "unit": "µM"},
      {"measurement": "IC50", "setting": "JAK3", "value": "≥ 10", "unit": "µM"},
      {"measurement": "IC50", "setting": "JAK1", "value": "0.1 to 1", "unit": "µM"}
    ]},
    {"smiles": "CCC(=O)N1CCC(n2cc(-c3ccnc(Nc4cnn(C)c4)n3)cn2)C1", "note": "(centres unmarked) [TDM-180649, 1-(3-(4-(2-((1-methyl-1H-pyrazol-4-yl)amino)pyrimidin-4-yl)-1H-pyrazol-1-yl)pyrrolidin-1-yl)propan-1-one]", "values": [
      {"measurement": "IC50", "setting": "Tyk2", "value": "≥ 10", "unit": "µM"},
      {"measurement": "IC50", "setting": "JAK2", "value": "≥ 10", "unit": "µM"},
      {"measurement": "IC50", "setting": "JAK3", "value": "≥ 10", "unit": "µM"},
      {"measurement": "IC50", "setting": "JAK1", "value": "≥ 10", "unit": "µM"}
    ]},
    {"smiles": "Cn1cc(Nc2nccc(-c3cnn(C4(CC#N)CN(C(=O)CC#N)C4)c3)n2)cn1", "note": "[TDM-180727, 3-(3-(cyanomethyl)-3-(4-(2-((1-methyl-1H-pyrazol-4-yl)amino)pyrimidin-4-yl)-1H-pyrazol-1-yl)azetidinpiperazin-1-yl)-3-oxypropionitrile]", "values": [
      {"measurement": "IC50", "setting": "Tyk2", "value": "0.1 to 1", "unit": "µM"},
      {"measurement": "IC50", "setting": "JAK2", "value": "1 to 10", "unit": "µM"},
      {"measurement": "IC50", "setting": "JAK3", "value": "≥ 10", "unit": "µM"},
      {"measurement": "IC50", "setting": "JAK1", "value": "0.1 to 1", "unit": "µM"}
    ]},
    {"smiles": "CCOCCS(=O)(=O)N1CC(CC#N)(n2cc(-c3ccnc(Nc4cnn(C)c4)n3)cn2)C1", "note": "[TDM-180796, 2-(1-((2-ethoxyethyl)sulfonyl)-3-(4-(2-((1-methyl-1H-pyrazol-4-yl)amino)pyrimidin-4-yl)-1H-pyrazol-1-yl)azetidin-3-yl)acetonitrile]", "values": [
      {"measurement": "IC50", "setting": "Tyk2", "value": "0.1 to 1", "unit": "µM"},
      {"measurement": "IC50", "setting": "JAK2", "value": "0.1 to 1", "unit": "µM"},
      {"measurement": "IC50", "setting": "JAK3", "value": "≥ 10", "unit": "µM"},
      {"measurement": "IC50", "setting": "JAK1", "value": "1 to 10", "unit": "µM"}
    ]},
    {"smiles": "CCCC(=O)N1CC(n2cc(-c3ccnc(Nc4cnn(C)c4)n3)cn2)C1", "note": "[TDM-180670]", "values": [
      {"measurement": "IC50", "setting": "Tyk2", "value": "≥ 10", "unit": "µM"},
      {"measurement": "IC50", "setting": "JAK2", "value": "≥ 10", "unit": "µM"},
      {"measurement": "IC50", "setting": "JAK3", "value": "≥ 10", "unit": "µM"},
      {"measurement": "IC50", "setting": "JAK1", "value": "≥ 10", "unit": "µM"}
    ]},
    {"smiles": "CCCS(=O)(=O)N1CCC(n2cc(-c3ccnc(Nc4cnn(C)c4)n3)cn2)CC1", "note": "[TDM-180675, N-(1-methyl-1H-pyrazol-4-yl)-4-(1-(1-(propylsulfonyl)piperidin-4-yl)-1H-pyrazol-4-yl)pyrimidin-2-amine]", "values": [
      {"measurement": "IC50", "setting": "Tyk2", "value": "≥ 10", "unit": "µM"},
      {"measurement": "IC50", "setting": "JAK2", "value": "1 to 10", "unit": "µM"},
      {"measurement": "IC50", "setting": "JAK3", "value": "≥ 10", "unit": "µM"},
      {"measurement": "IC50", "setting": "JAK1", "value": "≥ 10", "unit": "µM"}
    ]}
  ]
}
